Test results published in US20200239530A1, “COMPOUNDS AND METHODS OF MODULATING PROTEIN DEGRADATION” (Vividion Therapeutics, Inc., priority 2017, published 2020).

Key:
Assay in all cases: Cysteine liganding, probe competition
Assay type in all cases: binding
[1] = target: T1, AKAP1 A-kinase anchor protein 1, mitochondrial (Homo sapiens, UniProt Q92667)
T1 construct: Cells were resuspended in cold PBS on ice and sonicated with a probe sonicator to achieve lysis; endogenous in cells
T1 sequence (Q92667 30-903): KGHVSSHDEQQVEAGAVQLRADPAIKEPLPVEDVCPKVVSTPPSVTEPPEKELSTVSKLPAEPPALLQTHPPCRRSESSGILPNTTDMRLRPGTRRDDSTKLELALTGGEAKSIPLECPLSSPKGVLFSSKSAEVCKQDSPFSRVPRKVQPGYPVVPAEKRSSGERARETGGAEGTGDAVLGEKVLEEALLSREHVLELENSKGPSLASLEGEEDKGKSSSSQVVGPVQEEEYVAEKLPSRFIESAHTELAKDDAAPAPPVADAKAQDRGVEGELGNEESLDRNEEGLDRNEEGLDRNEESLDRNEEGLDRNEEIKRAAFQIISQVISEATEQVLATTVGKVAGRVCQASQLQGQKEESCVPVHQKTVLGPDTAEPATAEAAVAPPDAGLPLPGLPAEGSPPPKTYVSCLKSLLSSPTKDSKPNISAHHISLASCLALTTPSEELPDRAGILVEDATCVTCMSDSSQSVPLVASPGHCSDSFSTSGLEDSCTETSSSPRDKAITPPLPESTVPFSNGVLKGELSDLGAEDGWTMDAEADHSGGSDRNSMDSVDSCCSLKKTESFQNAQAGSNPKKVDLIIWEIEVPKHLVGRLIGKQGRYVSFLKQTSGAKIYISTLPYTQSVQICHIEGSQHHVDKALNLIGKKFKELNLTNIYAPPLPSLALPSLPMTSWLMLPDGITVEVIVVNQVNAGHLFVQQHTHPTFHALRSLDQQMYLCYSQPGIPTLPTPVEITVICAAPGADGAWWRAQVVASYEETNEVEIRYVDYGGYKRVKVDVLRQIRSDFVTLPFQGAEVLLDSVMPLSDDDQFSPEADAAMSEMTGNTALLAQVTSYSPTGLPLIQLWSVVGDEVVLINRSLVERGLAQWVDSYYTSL
Summary of the method: (§1)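 Steps: sonicate cells in cold PBS; treat 5 mg/ml lysate with compound (25° C, 1 hr); add desthiobiotin iodoacetamide probe from a 10 mM stock (25° C, 1 hr); precipitate, reduce, alkylate, digest with trypsin; capture labelled peptides on streptavidin for analysis.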

[2] = target: T2, RNF20 E3 ubiquitin-protein ligase BRE1A (Homo sapiens, UniProt Q5VTR2)
T2 construct: Cells were resuspended in cold PBS on ice and sonicated with a probe sonicator to achieve lysis; endogenous in cells
T2 sequence (Q5VTR2 whole entry): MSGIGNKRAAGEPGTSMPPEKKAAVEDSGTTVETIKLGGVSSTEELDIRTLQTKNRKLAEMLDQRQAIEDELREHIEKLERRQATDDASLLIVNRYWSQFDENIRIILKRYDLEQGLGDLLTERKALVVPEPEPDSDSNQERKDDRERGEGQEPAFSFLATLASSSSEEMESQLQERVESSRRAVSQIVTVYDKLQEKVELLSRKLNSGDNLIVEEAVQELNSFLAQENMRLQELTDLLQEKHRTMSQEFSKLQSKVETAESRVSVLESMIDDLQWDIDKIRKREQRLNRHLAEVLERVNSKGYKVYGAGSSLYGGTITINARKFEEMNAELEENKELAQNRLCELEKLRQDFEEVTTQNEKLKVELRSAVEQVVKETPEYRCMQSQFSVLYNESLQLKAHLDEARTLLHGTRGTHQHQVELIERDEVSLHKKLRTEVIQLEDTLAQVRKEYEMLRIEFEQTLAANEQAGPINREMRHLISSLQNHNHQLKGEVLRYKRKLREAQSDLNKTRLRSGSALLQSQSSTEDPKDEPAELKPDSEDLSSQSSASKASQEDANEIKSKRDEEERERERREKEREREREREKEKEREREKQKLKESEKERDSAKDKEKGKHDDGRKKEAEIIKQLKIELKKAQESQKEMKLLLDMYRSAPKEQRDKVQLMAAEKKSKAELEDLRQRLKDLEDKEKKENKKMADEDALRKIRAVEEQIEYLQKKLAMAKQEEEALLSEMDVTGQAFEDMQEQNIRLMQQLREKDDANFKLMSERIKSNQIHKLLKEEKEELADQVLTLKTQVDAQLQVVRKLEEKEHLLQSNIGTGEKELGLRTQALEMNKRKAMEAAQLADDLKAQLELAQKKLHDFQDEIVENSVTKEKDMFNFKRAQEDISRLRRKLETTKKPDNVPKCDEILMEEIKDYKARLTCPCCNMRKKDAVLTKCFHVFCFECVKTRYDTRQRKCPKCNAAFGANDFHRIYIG
Summary of the method: as §1

[3] = target: T3, RPUSD3 RNA pseudouridylate synthase domain-containing pro (Homo sapiens, UniProt Q6P087)
T3 construct: Cells were resuspended in cold PBS on ice and sonicated with a probe sonicator to achieve lysis; endogenous in cells
T3 sequence (Q6P087 26-351): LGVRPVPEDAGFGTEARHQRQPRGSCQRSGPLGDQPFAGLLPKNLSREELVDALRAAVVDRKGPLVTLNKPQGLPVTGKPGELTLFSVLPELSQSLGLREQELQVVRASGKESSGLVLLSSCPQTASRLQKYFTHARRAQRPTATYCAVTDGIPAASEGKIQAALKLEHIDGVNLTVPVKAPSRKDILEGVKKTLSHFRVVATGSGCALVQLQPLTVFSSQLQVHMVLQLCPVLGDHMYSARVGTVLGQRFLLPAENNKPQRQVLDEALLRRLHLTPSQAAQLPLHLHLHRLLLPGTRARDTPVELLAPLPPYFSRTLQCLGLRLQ
Summary of the method: as §1

[4] = target: T4, SETD1A Histone-lysine N-methyltransferase SETD1A (Homo sapiens, UniProt O15047)
T4 construct: Cells were resuspended in cold PBS on ice and sonicated with a probe sonicator to achieve lysis; endogenous in cells
T4 sequence (O15047 whole entry): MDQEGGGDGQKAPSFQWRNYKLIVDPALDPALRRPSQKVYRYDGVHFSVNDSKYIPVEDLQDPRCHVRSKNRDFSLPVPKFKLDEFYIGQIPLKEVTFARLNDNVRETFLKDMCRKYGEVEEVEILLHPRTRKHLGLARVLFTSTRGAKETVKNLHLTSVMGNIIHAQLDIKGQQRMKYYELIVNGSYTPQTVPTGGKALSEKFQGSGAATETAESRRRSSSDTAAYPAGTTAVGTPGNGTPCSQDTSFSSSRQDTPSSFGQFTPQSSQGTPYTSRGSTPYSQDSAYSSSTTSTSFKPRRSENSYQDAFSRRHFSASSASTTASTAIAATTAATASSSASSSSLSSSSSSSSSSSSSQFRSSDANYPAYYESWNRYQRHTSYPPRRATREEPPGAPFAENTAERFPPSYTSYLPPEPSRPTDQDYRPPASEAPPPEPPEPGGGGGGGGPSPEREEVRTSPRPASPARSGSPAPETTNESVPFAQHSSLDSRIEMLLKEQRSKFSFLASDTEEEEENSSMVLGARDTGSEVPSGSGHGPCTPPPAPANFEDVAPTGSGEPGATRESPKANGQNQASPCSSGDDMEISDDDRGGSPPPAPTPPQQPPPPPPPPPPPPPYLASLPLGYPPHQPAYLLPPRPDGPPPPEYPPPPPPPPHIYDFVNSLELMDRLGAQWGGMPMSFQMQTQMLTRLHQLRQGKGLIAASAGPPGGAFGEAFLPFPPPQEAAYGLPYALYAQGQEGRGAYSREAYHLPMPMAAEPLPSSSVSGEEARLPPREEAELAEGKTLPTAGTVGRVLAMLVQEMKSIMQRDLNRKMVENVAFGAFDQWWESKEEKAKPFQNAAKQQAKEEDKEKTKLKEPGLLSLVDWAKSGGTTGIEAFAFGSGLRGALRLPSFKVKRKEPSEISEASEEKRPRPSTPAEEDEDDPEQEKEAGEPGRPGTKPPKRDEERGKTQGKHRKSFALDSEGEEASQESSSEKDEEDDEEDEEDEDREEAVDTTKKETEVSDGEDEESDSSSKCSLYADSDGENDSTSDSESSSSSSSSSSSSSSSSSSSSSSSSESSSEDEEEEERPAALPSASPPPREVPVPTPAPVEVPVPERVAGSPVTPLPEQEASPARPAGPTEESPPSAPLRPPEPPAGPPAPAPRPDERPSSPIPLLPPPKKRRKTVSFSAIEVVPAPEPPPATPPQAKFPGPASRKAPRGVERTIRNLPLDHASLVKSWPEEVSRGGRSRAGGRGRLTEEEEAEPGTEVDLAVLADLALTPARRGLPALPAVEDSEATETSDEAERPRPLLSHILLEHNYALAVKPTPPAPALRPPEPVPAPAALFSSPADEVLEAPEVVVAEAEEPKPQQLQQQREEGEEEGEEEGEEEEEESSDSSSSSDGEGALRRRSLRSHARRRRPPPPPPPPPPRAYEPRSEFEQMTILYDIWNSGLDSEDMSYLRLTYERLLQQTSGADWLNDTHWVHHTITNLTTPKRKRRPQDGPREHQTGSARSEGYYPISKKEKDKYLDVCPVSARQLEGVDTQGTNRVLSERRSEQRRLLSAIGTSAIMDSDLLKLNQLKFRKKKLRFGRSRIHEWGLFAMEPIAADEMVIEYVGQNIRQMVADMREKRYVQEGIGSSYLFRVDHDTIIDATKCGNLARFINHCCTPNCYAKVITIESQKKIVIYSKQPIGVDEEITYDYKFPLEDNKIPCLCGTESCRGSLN
Summary of the method: as §1

| SMILES | Liganded ([1]; AKAP1 Res# 376, uniprot Q92667) | Liganded ([2]; RNF20 Res# 383, uniprot Q5VTR2) | Liganded ([3]; RPUSD3 Res# 147, uniprot Q6P087) | Liganded ([4]; SETD1A Res# 1648, uniprot O15047) | 100 ave ([1]; uniprot Q92667) | 500 Max ([1]; uniprot Q92667) | 500 ave ([1]; uniprot Q92667) | 100 Max ([1]; uniprot Q92667, in % (unit assumed)) | 100 Max ([2]; uniprot Q5VTR2) | 100 ave ([2]; uniprot Q5VTR2) | 500 Max ([2]; uniprot Q5VTR2) | 500 ave ([2]; uniprot Q5VTR2) | 100 Max ([3]; uniprot Q6P087) | 100 ave ([3]; uniprot Q6P087) | 500 Max ([3]; uniprot Q6P087) | 500 ave ([3]; uniprot Q6P087) | 100 Max ([4]; uniprot O15047) | 100 ave ([4]; uniprot O15047) | 500 Max ([4]; uniprot O15047) | 500 ave ([4]; uniprot O15047) |
| --- | --- | --- | --- | --- | --- | --- | --- | --- | --- | --- | --- | --- | --- | --- | --- | --- | --- | --- | --- | --- |
| COc1ccc2c(c1)CCCN2C(=O)CCl [KB02] | YES | YES | YES | YES |  |  |  |  |  |  |  |  |  |  |  |  |  |  |  |  |
| O=C(CCl)Nc1cc(C(F)(F)F)cc(C(F)(F)F)c1 [KBO3] |  |  |  |  | −0.33 | 57.81 | 45.04 | 18.92 | 11.0 | 0.6 | 37.3 | 32.6 | 14.63 | 9.07 | 49.47 | 49.47 | 15.12 | −0.4575 | 40.15 | 38.365 |
